# According to ChEMBL document CHEMBL4715817, “Python Cathelicidin CATHPb1 Protects against Multidrug-Resistant Staphylococcal Infections by Antimicrobial-Immunomodulatory Duality” (J Med Chem, 2018):
# Active and inactive are the calls of the source. No cut-off for these calls is given here. Peptide text beside a SMILES is read from it.
# Assays:
# Mus musculus [1] = assay: Immunomodulatory activity in Kunming mouse infected with vancomycin-resistant Staphylococcus aureus assessed as decreased in TNF-alpha level in peritoneal lavage at 10 mg/kg, ip administered 4 hrs after infection by ELISA; assay type: functional, organism-based
# Staphylococcus aureus [2] = assay: In vivo antibacterial activity against vancomycin resistant Staphylococcus aureus infected in kunming mouse assessed as reduction in bacterial load in spleen at 10 mg/kg, ip administered 24 hrs before infection; assay type: functional, organism-based
# Mus musculus [3] = assay: Immunomodulatory activity in Kunming mouse infected with vancomycin-resistant Staphylococcus aureus assessed as increased in IL-10 level in peritoneal lavage at 10 mg/kg, ip administered 24 hrs before infection by ELISA; assay type: functional, organism-based
# [4] = Induction of neutrophil extracellular trap formation in neutrophil (unknown origin) at 10 ug/ml measured after 3 hrs by fluorescence analysis; assay type: functional; conditions: dose 10 µg/ml
# Macrophage [5] = assay: Immunomodulatory activity in mouse peritoneal macrophage assessed as inhibition of LPS-induced MCP-1 level measured after 24 hrs by ELISA; assay type: functional, tissue-based; conditions: dose 5-20 µg/ml
# [6] = Stability of compound in 80% human serum assessed as intact compound remained measured upto 8 hrs by HPLC analysis; assay type: cell-free; conditions: time hrs <=8
# Neutrophil [7] = assay: Induction of ROS production in neutrophil (unknown origin) by fluorescence assay; assay type: functional, cell-based; conditions: dose 10-40 µg/ml
# Staphylococcus aureus [8] = assay: In vivo antibacterial activity against vancomycin resistant Staphylococcus aureus infected in kunming mouse assessed as reduction in bacterial load in peritoneum at 10 mg/kg, sc measured 18 hrs after infection; assay type: functional, organism-based
# Macrophage [9] = assay: Immunomodulatory activity in mouse peritoneal macrophage assessed as inhibition of LPS-induced IL-6 level measured after 6 hrs by qRT-PCR analysis; assay type: functional, tissue-based; conditions: dose 5-20 µg/ml
# Mus musculus [10] = assay: Immunomodulatory activity in mouse assessed as increase […] of MCP-1 in peritoneal cavity at 10 mg/kg, ip measured after 5 to 24 hrs by ELISA; assay type: functional, organism-based; conditions: time 5-24 hrs
# Candida albicans = assay: Antimicrobial activity against Candida albicans IS 08022710 incubated for 16 to 18 hrs by fluorescence microplate reader analysis; assay type: functional; conditions: time 16-18 hrs
# Neutrophil [11] = assay: Immunomodulatory activity in neutrophils (unknown origin) assessed as inhibition of LPS-induced MCP-1 level at 5 to 20 ug/ml by ELISA; assay type: functional, cell-based; conditions: dose 5-20 µg/ml
# Staphylococcus aureus [12] = assay: Antimicrobial activity against methicillin sensitive Staphylococcus aureus ATCC 25923 incubated for 16 to 18 hrs by fluorescence microplate reader analysis; assay type: functional; conditions: time 16-18 hrs
# Staphylococcus aureus [13] = assay: Antibacterial activity against vancomycin-resistant Staphylococcus aureus assessed as bacterial growth inhibition in presence of 100 mmol NaCl; assay type: functional
# Staphylococcus aureus [14] = assay: Antibacterial activity against vancomycin-resistant Staphylococcus aureus assessed as neutrophil-induced bacterial cell killing neutrophils pretreated with compound measured after 15 to 60 mins; assay type: functional, organism-based; conditions: dose 10-40 µg/ml, time 15-60 min
# Escherichia coli = assay: Antimicrobial activity against Escherichia coli ATCC 25922 incubated for 16 to 18 hrs by fluorescence microplate reader analysis; assay type: functional; conditions: time 16-18 hrs
# [15] = Cytotoxicity against mouse peritoneal macrophage assessed as cell death at 100 ug/ml by MTT assay; assay type: tissue-based
# Macrophage [16] = assay: Immunomodulatory activity in mouse peritoneal macrophage assessed as inhibition of LPS-induced TNF-alpha level measured after 6 hrs by qRT-PCR analysis; assay type: functional, tissue-based; conditions: dose 5-20 µg/ml
# Staphylococcus aureus [17] = assay: In vivo antibacterial activity against vancomycin resistant Staphylococcus aureus infected in kunming mouse assessed as reduction in bacterial load in peritoneum at 10 mg/kg, iv measured 18 hrs after infection; assay type: functional, organism-based
# Mus musculus [18] = assay: Immunomodulatory activity in Kunming mouse infected with vancomycin-resistant Staphylococcus aureus assessed as decreased in TNF-alpha level in peritoneal lavage at 10 mg/kg, ip administered 24 hrs before infection by ELISA; assay type: functional, organism-based
# Staphylococcus aureus [19] = assay: Antibacterial activity against vancomycin-resistant Staphylococcus aureus assessed as neutrophil-induced bacterial cell killing neutrophils pretreated with compound at 10 to 40 ug/ml; assay type: functional, organism-based; conditions: dose 10-40 µg/ml, time 15-60 min, TDE = time-dependent effect
# [20] = Toxicity in Kunming mouse assessed as effect on MIP-2 levels at 10 mg/kg, ip measured after 5 hrs by ELISA; assay type: organism-based; conditions: in vivo
# [21] = Induction of neutrophil extracellular trap formation in neutrophil (unknown origin) at 20 ug/ml measured after 3 hrs by fluorescence analysis; assay type: functional; conditions: dose 20 µg/ml
# RAW264.7 = assay: Induction of ROS production in mouse RAW 264.7 cells by fluorescence assay; assay type: functional, cell-based; conditions: dose 10-40 µg/ml
# [22] = target: Mitogen-activated protein kinase 8/9 (Homo sapiens) (UniProt P45983+P45984); assay: Inhibition of LPS-induced phosphorylation of Jnk1/2 in mouse peritoneal macrophage at 20 ug/ml pretreated for 1 hr followed by LPS stimulation measured after 30 mins by Western blot analysis relative to control; assay type: tissue-based; conditions: dose 20.0 µg/ml, time 1.5 hrs
# Sequence of Mitogen-activated protein kinase 8/9 (Homo sapiens) (P45983 whole entry, looked up): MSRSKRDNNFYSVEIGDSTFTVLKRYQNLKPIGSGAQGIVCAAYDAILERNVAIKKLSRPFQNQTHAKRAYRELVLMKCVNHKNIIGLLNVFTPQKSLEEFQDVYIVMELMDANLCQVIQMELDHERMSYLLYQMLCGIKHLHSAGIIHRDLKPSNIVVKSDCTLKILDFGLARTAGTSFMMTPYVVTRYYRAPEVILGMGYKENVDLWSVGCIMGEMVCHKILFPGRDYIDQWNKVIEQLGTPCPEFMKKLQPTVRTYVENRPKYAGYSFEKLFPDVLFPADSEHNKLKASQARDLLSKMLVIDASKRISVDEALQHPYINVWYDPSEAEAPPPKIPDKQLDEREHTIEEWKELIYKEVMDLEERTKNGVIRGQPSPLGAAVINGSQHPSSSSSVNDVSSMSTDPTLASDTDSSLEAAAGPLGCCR
# Sequence of Mitogen-activated protein kinase 8/9 (Homo sapiens) (P45984 whole entry, looked up): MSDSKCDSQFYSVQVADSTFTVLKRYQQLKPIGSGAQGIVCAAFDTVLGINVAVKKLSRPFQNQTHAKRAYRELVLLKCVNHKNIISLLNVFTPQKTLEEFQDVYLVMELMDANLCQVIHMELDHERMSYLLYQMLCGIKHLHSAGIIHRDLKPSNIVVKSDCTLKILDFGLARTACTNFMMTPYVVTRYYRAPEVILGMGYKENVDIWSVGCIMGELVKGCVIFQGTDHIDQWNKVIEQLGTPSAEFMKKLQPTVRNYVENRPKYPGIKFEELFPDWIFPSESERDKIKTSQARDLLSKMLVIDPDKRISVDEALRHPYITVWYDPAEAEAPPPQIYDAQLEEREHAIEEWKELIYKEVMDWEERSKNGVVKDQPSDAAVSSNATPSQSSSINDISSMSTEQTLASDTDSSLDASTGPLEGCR
# Klebsiella oxytoca = assay: Antimicrobial activity against Klebsiella oxytoca incubated for 16 to 18 hrs by fluorescence microplate reader analysis; assay type: functional; conditions: time 16-18 hrs
# [23] = Toxicity in Kunming mouse assessed as effect on TNF-alpha levels at 10 mg/kg, ip measured after 5 hrs by ELISA; assay type: organism-based; conditions: in vivo
# Macrophage [24] = assay: Immunomodulatory activity in mouse peritoneal macrophage assessed as inhibition of LPS-induced IL-6 level measured after 24 hrs by ELISA; assay type: functional; conditions: dose 5-20 µg/ml
# [25] = Immunomodulatory activity in mouse peritoneal macrophage assessed as inhibition of LPS-induced IL-6 level at 5 ug/ml measured after 6 hrs by qRT-PCR analysis relative to control; assay type: functional
# Staphylococcus aureus [26] = assay: Antibacterial activity against vancomycin-resistant Staphylococcus aureus assessed as bactericidal activity incubated at 0 to 90 degree C for 1 hr; assay type: functional, organism-based
# Mus musculus [27] = assay: Immunomodulatory activity in Kunming mouse infected with vancomycin-resistant Staphylococcus aureus assessed as increased in MCP-1 level in peritoneal lavage at 10 mg/kg, ip administered 24 hrs before infection by ELISA; assay type: functional, organism-based
# Pseudomonas aeruginosa = assay: Antibiofilm activity against Pseudomonas aeruginosa assessed as biofilm eradication at BIC-5 by XTT and crystal violet staining assay relative to control; assay type: functional
# [28] = Toxicity in Kunming mouse assessed as effect on MCP-1 levels at 10 mg/kg, ip measured after 5 hrs by ELISA; assay type: organism-based; conditions: in vivo
# Staphylococcus aureus [29] = assay: In vivo antibacterial activity against vancomycin resistant Staphylococcus aureus infected in kunming mouse assessed as reduction in bacterial load in peritoneal lavage at 10 mg/kg, ip administered 24 hrs before infection; assay type: functional, organism-based
# Salmonella paratyphi = assay: Antimicrobial activity against Salmonella paratyphi IS 738 incubated for 16 to 18 hrs by fluorescence microplate reader analysis; assay type: functional, Salmonella enterica subsp. enterica serovar Paratyphi A; conditions: Salmonella enterica, time 16-18 hrs
# Macrophage [30] = assay: Immunomodulatory activity in mouse peritoneal macrophage assessed as inhibition of LPS-induced MCP-1 level measured after 6 hrs by qRT-PCR analysis; assay type: functional, tissue-based; conditions: dose 5-20 µg/ml
# [31] = Hemolytic activity in human erythrocytes measured at 100 ug/ml; assay type: ADME, cell-based, Erythrocyte; conditions: at 100 µg/mL, read-out: Activity
# Staphylococcus aureus [32] = assay: In vivo antibacterial activity against vancomycin resistant Staphylococcus aureus infected in kunming mouse assessed as reduction in bacterial load in peritoneum at 10 mg/kg, im measured 18 hrs after infection; assay type: functional, organism-based
smiles,measurement,setting,value
CC[C@H](C)[C@H](NC(=O)[C@@H]1CCCN1C(=O)[C@@H](NC(=O)[C@@H](NC(=O)CNC(=O)CNC(=O)[C@@H](NC(=O)[C@H](Cc1ccccc1)NC(=O)[C@@H](NC(=O)[C@H](CCCCN)NC(=O)[C@@H](NC(=O)[C@H](CCCCN)NC(=O)[C@H](CCCCN)NC(=O)[C@H](Cc1ccccc1)NC(=O)[C@@H](NC(=O)[C@H](CCCCN)NC(=O)[C@H](CCCNC(=N)N)NC(=O)[C@H](Cc1ccccc1)NC(=O)CNC(=O)[C@H](CCCCN)NC(=O)[C@H](CCCCN)NC(=O)[C@@H](NC(=O)[C@H](CCCCN)NC(=O)[C@H](CCCNC(=N)N)NC(=O)[C@H](Cc1ccccc1)NC(=O)[C@H](Cc1ccccc1)NC(=O)[C@H](CCCCN)NC(=O)[C@H](CCCCN)NC(=O)[C@H](Cc1ccccc1)NC(=O)[C@H](CCCNC(=N)N)NC(=O)[C@@H](N)CCCCN)[C@@H](C)CC)[C@@H](C)CC)[C@@H](C)O)[C@@H](C)CC)[C@@H](C)CC)[C@@H](C)O)[C@@H](C)CC)C(=O)O (H-KRFKKFFRKIKKGFRKIFKKTKIFIGGTIPI-OH),Activity,Mus musculus [1],Active
same,Activity,Staphylococcus aureus [2],Active
same,Activity,Mus musculus [3],Active
same,Activity,[4],15.65%
same,inhibition,Macrophage [5],Dose-dependent effect
same,Stability,[6],30%
same,Activity,Neutrophil [7],Dose-dependent effect
same,Activity,Staphylococcus aureus [8],Active
same,inhibition,Macrophage [9],Dose-dependent effect
same,Activity,Mus musculus [10],Active
same,MIC,Candida albicans,1.17 µg/mL
same,inhibition,Neutrophil [11],inactive
same,MIC,Staphylococcus aureus [12],1.17 µg/mL
same,MIC,Staphylococcus aureus [13],< 10 µg/mL
same,Activity,Staphylococcus aureus [14],Dose-dependent effect
same,MIC,Escherichia coli,1.17 µg/mL
same,Activity,[15],6.46%
same,inhibition,Macrophage [16],Dose-dependent effect
same,Activity,Staphylococcus aureus [17],Active
same,Activity,Mus musculus [18],Active
same,Activity,Staphylococcus aureus [19],Tde
same,Activity,[20],Non-Toxic
same,Activity,[21],32.53%
same,Activity,RAW264.7,Dose-dependent effect
same,inhibition,[22],85%
same,MIC,Klebsiella oxytoca,1.17 µg/mL
same,Activity,[23],Non-Toxic
same,inhibition,Macrophage [24],Dose-dependent effect
same,inhibition at 5 µg/mL,[25],99.6%
same,Activity,Staphylococcus aureus [26],Active
same,Activity,Mus musculus [27],Active
same,Activity,Pseudomonas aeruginosa,62.23%
same,Activity,[28],Non-Toxic
same,Activity,Staphylococcus aureus [29],Active
same,MIC,Salmonella paratyphi,1.17 µg/mL
same,inhibition,Macrophage [30],Dose-dependent effect
same,hemolysis at 100 ug/ml,[31],6.63%
same,Activity,Staphylococcus aureus [32],Active
